US8575178B2, “Isothiazolo-pyrimidinedione derivatives as TRPA1 modulators” (Glenmark Pharmaceuticals S.A., priority 2009, dated 2013)

What was measured:
human TRPA1 = molecular target: T1, human TRPA1 (Homo sapiens, UniProt O75762); experiment: 45Calcium uptake assay, inhibition of AITC induced calcium uptake in human TRPA1 expressing CHO cells; assay type: cell-based; conditions: AITC 30 μM; for inhibition at 1 µM: 1.0 μM compound, read-out: human TRPA1 Percentage inhibition at 1.0 μM; for inhibition at 10 µM: 10.0 μM compound, read-out: human TRPA1 Percentage inhibition at 10.0 μM
T1 construct: expressed in transfected cells; host or cells: CHO cells (G-418 selection)
From the text: (§1) The illustrative examples of the present invention are screened for TRPA1 activity according to a modified procedure described in (a) Tóth, A. et al. Life Sciences, 2003, 73, 487-498. (b) McNamara C, R. et al, Proc. Natl. Acad. Sci. U.S.A., 2007, 104, 13525-13530. The screening of the compounds can be carried out by other methods and procedures known to persons skilled in the art.
(§2) Screening for TRPA1 Antagonist Using the ^45Calcium Uptake Assay:
(§3) The inhibition of TRPA1 receptor activation was measured as inhibition of allyl isothiocyanate (AITC) induced cellular uptake of radioactive calcium.
(§4) Test compounds were dissolved in 100% DMSO to prepare 10 mM stock and then diluted using plain medium with 0.1% BSA and 1.8 mM CaCl2 to get the desired concentration. The final concentration of DMSO in the reaction was 0.5% (v/v). Human TRPA1 expressing CHO cells were grown in F-12 DMEM medium with 10% FBS, 1% penicillin-streptomycin solution, and 400 μg/ml of G-418. Rat TRPA1 expressing CHO cells were grown in F-12 DMEM medium with 10% FBS, 1% penicillin-streptomycin solution, and 400 μg/ml of Zeocin. Cells were seeded 24 h prior to the assay in 96 well plates so as to get ˜50,000 cells per well on the day of experiment. Cells were treated with the test compounds for 10 minutes followed by the addition of AITC at a final concentration of 30 μM (for human TRPA1) and/or 10 μM (for rat TRPA1) and 5 μCi/ml ^45Ca^+2 for 3 minutes. Cells were washed and lysed using a buffer containing 1% Triton X-100, 0.1% deoxycholate and 0.1% SDS. Radioactivity in the lysate was measured in a Packard TopCount after addition of liquid scintillant. (Toth et al, Life Sciences (2003) 73, 487-498; McNamara C R et al, Proceedings of the National Academy of Sciences, (2007) 104, 13525-13530).
(§5) Concentration response curves were plotted as a % of maximal response obtained in the absence of test antagonist. IC50 values can be calculated from concentration response curve by nonlinear regression analysis using GraphPad PRISM software.

rat TRPA1 = molecular target: T2, rat TRPA1 (Rattus norvegicus, UniProt Q6RI86); experiment: 45Calcium uptake assay, inhibition of AITC induced calcium uptake in rat TRPA1 expressing CHO cells; assay type: cell-based; conditions: AITC 10 μM; for inhibition at 1 µM: 1.0 μM compound, read-out: rat TRPA1 Percentage inhibition at 1.0 μM; for inhibition at 10 µM: 10.0 μM compound, read-out: rat TRPA1 Percentage inhibition at 10.0 μM
T2 construct: expressed in transfected cells; host or cells: CHO cells (Zeocin selection)
From the text: as §1, §2, §3, §4, §5

T1 sequence (O75762 whole entry): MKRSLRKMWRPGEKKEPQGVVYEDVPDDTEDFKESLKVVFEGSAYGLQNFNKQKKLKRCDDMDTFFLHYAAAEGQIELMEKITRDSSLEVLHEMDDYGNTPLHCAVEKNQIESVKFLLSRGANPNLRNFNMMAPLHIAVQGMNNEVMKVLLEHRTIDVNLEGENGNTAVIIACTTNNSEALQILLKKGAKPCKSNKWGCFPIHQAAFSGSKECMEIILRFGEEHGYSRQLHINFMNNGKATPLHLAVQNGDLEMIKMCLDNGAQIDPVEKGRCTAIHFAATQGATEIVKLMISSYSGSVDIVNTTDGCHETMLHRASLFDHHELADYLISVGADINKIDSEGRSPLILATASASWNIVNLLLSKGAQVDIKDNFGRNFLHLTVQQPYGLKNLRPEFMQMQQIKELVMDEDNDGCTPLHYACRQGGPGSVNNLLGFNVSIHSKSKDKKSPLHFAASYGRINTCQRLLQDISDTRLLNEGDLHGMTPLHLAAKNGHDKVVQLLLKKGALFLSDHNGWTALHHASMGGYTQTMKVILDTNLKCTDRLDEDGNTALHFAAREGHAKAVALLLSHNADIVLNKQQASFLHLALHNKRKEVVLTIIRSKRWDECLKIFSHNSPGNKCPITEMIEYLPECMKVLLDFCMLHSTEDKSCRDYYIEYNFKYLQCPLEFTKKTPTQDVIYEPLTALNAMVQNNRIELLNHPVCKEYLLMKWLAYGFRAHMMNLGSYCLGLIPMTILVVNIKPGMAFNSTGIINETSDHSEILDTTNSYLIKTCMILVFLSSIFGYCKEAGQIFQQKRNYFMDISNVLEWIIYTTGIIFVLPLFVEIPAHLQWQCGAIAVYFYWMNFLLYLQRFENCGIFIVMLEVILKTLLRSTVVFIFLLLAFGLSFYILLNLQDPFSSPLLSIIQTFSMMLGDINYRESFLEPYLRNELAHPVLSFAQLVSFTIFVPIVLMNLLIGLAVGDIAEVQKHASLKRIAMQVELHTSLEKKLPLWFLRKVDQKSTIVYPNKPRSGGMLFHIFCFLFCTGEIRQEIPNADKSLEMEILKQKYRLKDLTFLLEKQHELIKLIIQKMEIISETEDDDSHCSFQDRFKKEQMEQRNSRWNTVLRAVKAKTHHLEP
T2 sequence (Q6RI86 whole entry): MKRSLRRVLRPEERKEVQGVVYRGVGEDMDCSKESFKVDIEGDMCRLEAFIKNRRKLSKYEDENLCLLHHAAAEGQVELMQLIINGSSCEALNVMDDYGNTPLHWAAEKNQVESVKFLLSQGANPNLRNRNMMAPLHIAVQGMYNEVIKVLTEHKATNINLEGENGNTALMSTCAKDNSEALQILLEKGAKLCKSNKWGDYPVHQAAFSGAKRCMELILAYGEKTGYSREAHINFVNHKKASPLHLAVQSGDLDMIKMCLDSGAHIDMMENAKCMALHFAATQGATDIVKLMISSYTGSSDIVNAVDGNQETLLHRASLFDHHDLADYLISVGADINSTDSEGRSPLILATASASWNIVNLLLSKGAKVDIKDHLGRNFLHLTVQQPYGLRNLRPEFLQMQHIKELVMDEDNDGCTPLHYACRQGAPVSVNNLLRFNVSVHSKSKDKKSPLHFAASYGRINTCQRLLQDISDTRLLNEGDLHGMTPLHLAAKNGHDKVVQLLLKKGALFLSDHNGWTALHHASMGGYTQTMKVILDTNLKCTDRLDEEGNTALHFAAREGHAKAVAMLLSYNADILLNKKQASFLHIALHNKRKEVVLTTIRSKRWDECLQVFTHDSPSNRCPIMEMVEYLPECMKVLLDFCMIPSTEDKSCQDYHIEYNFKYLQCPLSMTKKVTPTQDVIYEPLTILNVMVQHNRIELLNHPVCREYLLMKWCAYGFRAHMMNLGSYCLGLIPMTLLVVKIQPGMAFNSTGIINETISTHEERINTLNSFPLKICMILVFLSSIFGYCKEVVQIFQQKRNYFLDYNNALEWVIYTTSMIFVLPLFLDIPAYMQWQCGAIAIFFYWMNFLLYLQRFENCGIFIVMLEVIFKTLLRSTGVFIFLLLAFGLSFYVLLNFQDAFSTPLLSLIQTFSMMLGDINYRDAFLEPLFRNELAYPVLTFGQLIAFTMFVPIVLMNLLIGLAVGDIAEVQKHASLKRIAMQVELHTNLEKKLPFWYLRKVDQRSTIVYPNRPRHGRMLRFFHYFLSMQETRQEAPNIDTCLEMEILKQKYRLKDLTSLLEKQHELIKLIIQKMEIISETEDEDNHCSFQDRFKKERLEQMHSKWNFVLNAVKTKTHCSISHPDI

| SMILES | inhibition at 1 µM (human TRPA1) [%] | inhibition at 10 µM (human TRPA1) [%] | IC50 (human TRPA1) [nM] | inhibition at 1 µM (rat TRPA1) [%] | inhibition at 10 µM (rat TRPA1) [%] | IC50 (rat TRPA1) [nM] |
| --- | --- | --- | --- | --- | --- | --- |
| Cn1c(=O)c2c(CC(=O)Nc3nc(-c4cccc(C(F)(F)F)c4)cs3)snc2n(C)c1=O [Example 1, 2-(5,7-Dimethyl-4,6-dioxo-4,5,6,7-tetrahydro[1,2]thiazolo[3,4-d]pyrimidin-3-yl)-N-{4-[3-(trifluoromethyl)phenyl]-1,3-thiazol-2-yl}acetamide] | 95.2 | 100 | < 50 | 71.3 | 100 | > 100 |
| Cn1c(=O)c2c(CC(=O)Nc3nc(-c4ccc(Cl)cc4)cs3)snc2n(C)c1=O [Example 2, N-[4-(4-Chlorophenyl)-1,3-thiazol-2-yl]-2-(5,7-dimethyl-4,6-dioxo-4,5,6,7-tetrahydro[1,2]thiazolo[3,4-d]pyrimidin-3-yl)acetamide] | 99.7 | 100 | < 50 | 34.9 | 43.8 | – |
| Cn1c(=O)c2c(CC(=O)Nc3nc(-c4ccc(F)c(OC(F)(F)F)c4)cs3)snc2n(C)c1=O [Example 3, 2-(5,7-Dimethyl-4,6-dioxo-4,5,6,7-tetrahydro[1,2]thiazolo[3,4-d]pyrimidin-3-yl)-N-{4-[4-fluoro-3-(trifluoromethoxy)phenyl]-1,3-thiazol-2-yl}acetamide] | 95.5 | 99.5 | < 50 | 68.5 | 98.3 | > 100 |
| Cn1c(=O)c2c(CC(=O)Nc3nc(-c4ccc(C(F)(F)F)c(F)c4)cs3)snc2n(C)c1=O [Example 4, 2-(5,7-Dimethyl-4,6-dioxo-4,5,6,7-tetrahydro[1,2]thiazolo[3,4-d]pyrimidin-3-yl)-N-{4-[3-fluoro-4-(trifluoromethyl)phenyl]-1,3-thiazol-2-yl}acetamide] | 99.8 | 100 | < 50 | 72.2 | 100 | – |
| Cn1c(=O)c2c(CC(=O)Nc3nc(-c4cccc(C(F)(F)F)c4F)cs3)snc2n(C)c1=O [Example 5, 2-(5,7-Dimethyl-4,6-dioxo-4,5,6,7-tetrahydro[1,2]thiazolo[3,4-d]pyrimidin-3-yl)-N-{4-[2-fluoro-3-(trifluoromethyl)phenyl]-1,3-thiazol-2-yl}acetamide] | 98.1 | 99.1 | < 50 | 95.6 | 98.5 | – |
| Cn1c(=O)c2c(CC(=O)Nc3nc(-c4ccc(Cl)c(C(F)(F)F)c4)cs3)snc2n(C)c1=O [Example 6, 2-(5,7-Dimethyl-4,6-dioxo-4,5,6,7-tetrahydro[1,2]thiazolo[3,4-c]pyrimidin-3-yl)-N-{4-[4-chloro-3-(trifluoromethyl)phenyl]-1,3-thiazol-2-yl}acetamide] | 99.3 | 99.6 | < 50 | 97.3 | 99.3 | > 100 |
| Cn1c(=O)c2c(CC(=O)Nc3nc(-c4ccc(OC(F)(F)F)c(F)c4)cs3)snc2n(C)c1=O [Example 7, 2-(5,7-Dimethyl-4,6-dioxo-4,5,6,7-tetrahydro[1,2]thiazolo[3,4-c]pyrimidin-3-yl)-N-{4-[3-fluoro-4-(trifluoromethoxy)phenyl]-1,3-thiazol-2-yl}acetamide] | 100 | 99.5 | < 50 | 79.4 | 100 | > 100 |
| Cn1c(=O)c2c(CC(=O)Nc3nc(-c4ccc(F)c(C(F)(F)F)c4F)cs3)snc2n(C)c1=O [Example 9, N-{4-[2,4-Difluoro-3-(trifluoromethyl)phenyl]-1,3-thiazol-2-yl}-2-(5,7-dimethyl-4,6-dioxo-4,5,6,7-tetrahydro[1,2]thiazolo[3,4-d]pyrimidin-3-yl)acetamide] | 98.4 | 98.1 | < 50 | 94.7 | 94.1 | – |
| Cn1c(=O)c2c(CC(=O)Nc3nc(-c4cc(F)c(C(F)(F)F)c(F)c4)cs3)snc2n(C)c1=O [Example 10, N-{4-[3,5-Difluoro-4-(trifluoromethyl)phenyl]-1,3-thiazol-2-yl}-2-(5,7-dimethyl-4,6-dioxo-4,5,6,7-tetrahydro[1,2]thiazolo[3,4-d]pyrimidin-3-yl)acetamide] | 99.9 | 100 | – | 35.2 | 68.4 | – |
| Cn1c(=O)c2c(CC(=O)Nc3ccn(-c4ccc(Br)cc4)n3)snc2n(C)c1=O [Example 11, N-[1-(4-Bromophenyl)-1H-pyrazol-3-yl]-2-(5,7-dimethyl-4,6-dioxo-4,5,6,7-tetrahydro[1,2]thiazolo[3,4-d]pyrimidin-3-yl)acetamide] | 100 | 100 | < 50 | 22.9 | 39.7 | – |
| Cn1c(=O)c2c(CC(=O)Nc3nc(-c4ccc(Cl)cc4)cs3)nsc2n(C)c1=O [Example 12, N-[4-(4-Chlorophenyl)-1,3-thiazol-2-yl]-2-(5,7-dimethyl-4,6-dioxo-4,5,6,7-tetrahydro[1,2]thiazolo[5,4-d]pyrimidin-3-yl)acetamide] | 98.4 | 99.2 | < 50 | 94.6 | 99.5 | > 100 |
| Cn1c(=O)c2c(CC(=O)Nc3nc(-c4cccc(C(F)(F)F)c4)cs3)nsc2n(C)c1=O [Example 13, 2-(5,7-Dimethyl-4,6-dioxo-4,5,6,7-tetrahydro[1,2]thiazolo[5,4-d]pyrimidin-3-yl)-N-{4-[3-(trifluoromethyl)phenyl]-1,3-thiazol-2-yl}acetamide] | 99.7 | 99.8 | < 50 | 99.3 | 99.3 | – |
| Cn1c(=O)c2c(CC(=O)Nc3nc(-c4ccc(C(F)(F)F)c(F)c4)cs3)nsc2n(C)c1=O [Example 19, 2-(5,7-Dimethyl-4,6-dioxo-4,5,6,7-tetrahydro[1,2]thiazolo[5,4-d]pyrimidin-3-yl)-N-{4-[3-fluoro-4-(trifluoromethyl)phenyl]-1,3-thiazol-2-yl}acetamide] | 99.7 | 100 | < 50 | 99.5 | 99.3 | < 50 |
| Cn1c(=O)c2c(CC(=O)Nc3nc(-c4ccc(F)c(C(F)(F)F)c4)cs3)nsc2n(C)c1=O [Example 20, 2-(5,7-Dimethyl-4,6-dioxo-4,5,6,7-tetrahydro[1,2]thiazolo[5,4-d]pyrimidin-3-yl)-N-{4-[4-fluoro-3-(trifluoromethyl)phenyl]-1,3-thiazol-2-yl}acetamide] | 99.6 | 99.8 | < 50 | 99.7 | 100 | < 50 |
| Cn1c(=O)c2c(CC(=O)Nc3nc(-c4ccc(C(F)(F)F)cc4F)cs3)nsc2n(C)c1=O [Example 21, 2-(5,7-Dimethyl-4,6-dioxo-4,5,6,7-tetrahydro[1,2]thiazolo[5,4-d]pyrimidin-3-yl)-N-{4-[2-fluoro-4-(trifluoromethyl)phenyl]-1,3-thiazol-2-yl}acetamide] | 99.5 | 100 | < 50 | 100 | 100 | < 50 |
| Cn1c(=O)c2c(CC(=O)Nc3nc(-c4cc(F)cc(C(F)(F)F)c4)cs3)nsc2n(C)c1=O [Example 22, 2-(5,7-Dimethyl-4,6-dioxo-4,5,6,7-tetrahydro[1,2]thiazolo[5,4-d]pyrimidin-3-yl)-N-{4-[3-fluoro-5-(trifluoromethyl)phenyl]-1,3-thiazol-2-yl}acetamide] | 100 | 100 | < 50 | 98.3 | 100 | – |
